{
  "source": "paper PMC4979471",
  "about": "(Cell Death Discovery, 2015)",
  "assay_in_all_cases": "Kinase selectivity, P33-radiolabeled assay",
  "type_in_all_cases": "biochemical",
  "conditions_in_all_cases": "10 μM ATP",
  "key": {"AKT1": {"target": "T1, AKT1 (Homo sapiens, UniProt P31749)", "T1 construct": "purchased Reaction Biology Corp", "how_it_was_run": "(§1)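 Reactions contained 10 μM ATP and 10 μM test compound, each run in duplicate. Kinase activity is expressed as a percentage of DMSO-treated controls.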"}, "AKT2": {"target": "T2, AKT2 (Homo sapiens, UniProt P31751)", "T2 construct": "purchased Reaction Biology Corp", "T2 sequence (P31751 whole entry)": "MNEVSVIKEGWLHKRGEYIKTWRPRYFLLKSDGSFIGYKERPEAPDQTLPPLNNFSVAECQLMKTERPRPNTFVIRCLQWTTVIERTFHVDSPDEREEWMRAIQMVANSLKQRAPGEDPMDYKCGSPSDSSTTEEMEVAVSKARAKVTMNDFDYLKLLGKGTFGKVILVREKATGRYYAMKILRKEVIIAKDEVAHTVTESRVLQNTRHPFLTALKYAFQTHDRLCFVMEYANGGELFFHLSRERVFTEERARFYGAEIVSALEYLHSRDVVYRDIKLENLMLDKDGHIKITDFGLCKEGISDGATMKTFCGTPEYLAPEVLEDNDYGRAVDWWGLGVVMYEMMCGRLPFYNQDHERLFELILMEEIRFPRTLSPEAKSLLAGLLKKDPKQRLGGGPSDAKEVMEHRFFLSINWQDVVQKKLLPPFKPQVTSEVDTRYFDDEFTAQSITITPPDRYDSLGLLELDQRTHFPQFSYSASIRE", "how_it_was_run": "as §1"}, "ALK4/ACVR1B": {"target": "T3, ALK4/ACVR1B (Homo sapiens, UniProt P36896)", "T3 construct": "purchased Reaction Biology Corp", "T3 sequence (P36896 24-505)": "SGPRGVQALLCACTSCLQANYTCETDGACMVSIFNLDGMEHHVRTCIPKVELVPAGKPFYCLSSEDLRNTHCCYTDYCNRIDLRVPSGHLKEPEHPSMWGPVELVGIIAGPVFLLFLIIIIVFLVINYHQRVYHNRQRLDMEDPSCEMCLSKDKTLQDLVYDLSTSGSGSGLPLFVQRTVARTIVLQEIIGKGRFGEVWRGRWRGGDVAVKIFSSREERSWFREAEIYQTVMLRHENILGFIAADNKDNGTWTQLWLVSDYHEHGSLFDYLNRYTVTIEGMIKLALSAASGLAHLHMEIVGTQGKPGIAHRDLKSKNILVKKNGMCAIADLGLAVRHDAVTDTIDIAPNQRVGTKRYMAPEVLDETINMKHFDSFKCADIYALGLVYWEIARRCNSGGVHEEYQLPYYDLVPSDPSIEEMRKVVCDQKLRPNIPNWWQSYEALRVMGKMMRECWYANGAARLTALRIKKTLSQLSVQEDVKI", "how_it_was_run": "as §1"}, "CAMK1g": {"target": "T4, CAMK1g (Homo sapiens, UniProt Q96NX5)", "T4 construct": "purchased Reaction Biology Corp", "how_it_was_run": "as §1"}, "CAMK2g": {"target": "T5, CAMK2g (Homo sapiens, UniProt Q13555)", "T5 construct": "purchased Reaction Biology Corp", "how_it_was_run": "as §1"}, "DAPK1": {"target": "T6, DAPK1 (Homo sapiens, UniProt P53355)", "T6 construct": "purchased Reaction Biology Corp", "T6 sequence (P53355 whole entry)": "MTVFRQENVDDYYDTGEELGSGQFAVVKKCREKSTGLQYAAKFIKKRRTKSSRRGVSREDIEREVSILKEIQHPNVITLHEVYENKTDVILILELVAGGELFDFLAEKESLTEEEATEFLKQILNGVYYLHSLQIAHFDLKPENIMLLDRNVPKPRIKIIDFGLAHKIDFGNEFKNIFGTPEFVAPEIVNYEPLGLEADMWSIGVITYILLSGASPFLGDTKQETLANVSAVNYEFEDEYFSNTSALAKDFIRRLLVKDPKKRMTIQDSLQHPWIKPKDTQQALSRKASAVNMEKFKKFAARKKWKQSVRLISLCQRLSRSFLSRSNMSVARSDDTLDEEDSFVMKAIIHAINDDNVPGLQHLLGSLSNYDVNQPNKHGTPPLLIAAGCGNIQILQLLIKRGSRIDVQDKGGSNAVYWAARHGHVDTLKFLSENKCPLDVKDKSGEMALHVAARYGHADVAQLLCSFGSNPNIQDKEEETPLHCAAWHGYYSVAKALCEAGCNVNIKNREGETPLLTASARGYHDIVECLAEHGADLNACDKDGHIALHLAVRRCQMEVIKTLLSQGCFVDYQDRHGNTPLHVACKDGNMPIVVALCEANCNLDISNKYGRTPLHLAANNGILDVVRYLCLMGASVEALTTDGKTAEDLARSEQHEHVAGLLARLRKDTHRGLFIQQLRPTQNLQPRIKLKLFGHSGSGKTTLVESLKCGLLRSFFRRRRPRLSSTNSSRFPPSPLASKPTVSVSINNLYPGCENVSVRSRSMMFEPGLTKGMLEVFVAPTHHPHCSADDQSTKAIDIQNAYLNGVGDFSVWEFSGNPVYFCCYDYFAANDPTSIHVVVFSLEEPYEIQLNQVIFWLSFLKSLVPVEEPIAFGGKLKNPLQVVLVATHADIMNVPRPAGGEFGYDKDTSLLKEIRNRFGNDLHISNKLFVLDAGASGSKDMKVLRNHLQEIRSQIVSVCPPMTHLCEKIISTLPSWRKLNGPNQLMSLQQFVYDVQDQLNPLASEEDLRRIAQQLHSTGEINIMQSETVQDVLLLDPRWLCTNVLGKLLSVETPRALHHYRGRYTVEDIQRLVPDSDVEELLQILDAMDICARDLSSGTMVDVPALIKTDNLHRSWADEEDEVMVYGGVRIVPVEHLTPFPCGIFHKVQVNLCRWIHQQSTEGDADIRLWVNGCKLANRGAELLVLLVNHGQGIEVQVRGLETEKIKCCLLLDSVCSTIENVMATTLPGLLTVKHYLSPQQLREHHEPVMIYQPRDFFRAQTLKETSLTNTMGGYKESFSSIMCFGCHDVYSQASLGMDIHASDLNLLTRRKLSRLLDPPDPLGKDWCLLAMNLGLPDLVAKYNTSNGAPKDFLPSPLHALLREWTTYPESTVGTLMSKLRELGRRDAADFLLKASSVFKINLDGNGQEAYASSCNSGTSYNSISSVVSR", "how_it_was_run": "as §1"}, "FES/FPS": {"target": "T7, FES/FPS (Homo sapiens, UniProt P07332)", "T7 construct": "purchased Reaction Biology Corp", "T7 sequence (P07332 whole entry)": "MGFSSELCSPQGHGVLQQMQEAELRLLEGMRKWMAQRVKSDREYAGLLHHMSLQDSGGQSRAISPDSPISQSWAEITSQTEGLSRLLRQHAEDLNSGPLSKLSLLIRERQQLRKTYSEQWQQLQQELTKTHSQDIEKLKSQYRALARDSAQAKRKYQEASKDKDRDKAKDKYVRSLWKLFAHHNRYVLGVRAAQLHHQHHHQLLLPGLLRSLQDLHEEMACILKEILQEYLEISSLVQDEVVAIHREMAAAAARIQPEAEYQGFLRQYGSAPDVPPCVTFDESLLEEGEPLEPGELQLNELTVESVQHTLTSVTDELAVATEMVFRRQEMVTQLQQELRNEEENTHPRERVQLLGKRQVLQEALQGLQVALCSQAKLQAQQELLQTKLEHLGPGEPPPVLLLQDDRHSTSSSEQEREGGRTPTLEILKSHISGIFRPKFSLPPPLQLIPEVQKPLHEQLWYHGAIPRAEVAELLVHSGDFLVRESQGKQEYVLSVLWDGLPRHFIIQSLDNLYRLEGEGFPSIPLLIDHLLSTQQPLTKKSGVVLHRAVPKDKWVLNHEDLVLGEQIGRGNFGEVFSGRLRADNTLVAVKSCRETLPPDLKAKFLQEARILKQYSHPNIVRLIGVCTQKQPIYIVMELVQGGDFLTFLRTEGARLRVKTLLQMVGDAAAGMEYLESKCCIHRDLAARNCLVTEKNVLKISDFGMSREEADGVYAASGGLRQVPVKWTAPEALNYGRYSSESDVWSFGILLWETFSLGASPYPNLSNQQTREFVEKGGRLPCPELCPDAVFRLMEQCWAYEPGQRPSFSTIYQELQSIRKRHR", "how_it_was_run": "as §1"}, "FLT1/VEGFR1": {"target": "T8, FLT1/VEGFR1 (Homo sapiens, UniProt P17948)", "T8 construct": "purchased Reaction Biology Corp", "T8 sequence (P17948 27-1338)": "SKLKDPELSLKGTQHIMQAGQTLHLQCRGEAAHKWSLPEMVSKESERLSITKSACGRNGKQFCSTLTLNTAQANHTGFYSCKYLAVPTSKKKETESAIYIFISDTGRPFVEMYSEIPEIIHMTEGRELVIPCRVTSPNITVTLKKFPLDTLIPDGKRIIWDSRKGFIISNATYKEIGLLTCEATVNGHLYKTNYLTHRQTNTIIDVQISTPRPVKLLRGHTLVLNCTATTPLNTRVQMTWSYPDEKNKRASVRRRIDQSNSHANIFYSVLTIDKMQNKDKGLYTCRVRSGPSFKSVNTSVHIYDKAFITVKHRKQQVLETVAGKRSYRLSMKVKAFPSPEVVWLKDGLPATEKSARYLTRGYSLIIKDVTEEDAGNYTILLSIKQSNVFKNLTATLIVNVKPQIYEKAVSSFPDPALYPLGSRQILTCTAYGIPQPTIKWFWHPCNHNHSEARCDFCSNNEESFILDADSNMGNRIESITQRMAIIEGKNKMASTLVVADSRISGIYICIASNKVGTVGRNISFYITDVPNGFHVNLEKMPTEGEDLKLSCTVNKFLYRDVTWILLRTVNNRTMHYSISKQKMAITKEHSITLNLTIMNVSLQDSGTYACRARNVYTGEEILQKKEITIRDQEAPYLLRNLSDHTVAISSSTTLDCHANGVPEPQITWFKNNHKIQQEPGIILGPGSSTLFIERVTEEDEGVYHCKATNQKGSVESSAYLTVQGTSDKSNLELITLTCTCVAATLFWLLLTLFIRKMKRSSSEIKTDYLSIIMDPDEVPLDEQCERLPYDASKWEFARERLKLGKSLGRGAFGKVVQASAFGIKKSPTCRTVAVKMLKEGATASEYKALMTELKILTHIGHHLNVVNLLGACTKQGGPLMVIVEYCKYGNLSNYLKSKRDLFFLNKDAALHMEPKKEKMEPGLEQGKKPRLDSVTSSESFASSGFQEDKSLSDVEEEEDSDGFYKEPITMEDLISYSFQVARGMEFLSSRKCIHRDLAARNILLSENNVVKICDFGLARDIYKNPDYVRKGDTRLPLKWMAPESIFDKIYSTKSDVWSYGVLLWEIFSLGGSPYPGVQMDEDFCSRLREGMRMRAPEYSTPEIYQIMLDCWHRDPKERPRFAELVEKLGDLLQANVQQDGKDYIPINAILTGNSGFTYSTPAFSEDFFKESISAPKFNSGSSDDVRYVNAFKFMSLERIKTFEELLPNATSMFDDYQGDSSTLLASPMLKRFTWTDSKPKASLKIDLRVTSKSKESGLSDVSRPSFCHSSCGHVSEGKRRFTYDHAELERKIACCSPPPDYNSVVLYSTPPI", "how_it_was_run": "as §1"}, "MKK4": {"target": "T9, MKK4 (Homo sapiens, UniProt P45985)", "T9 construct": "purchased Reaction Biology Corp", "T9 sequence (P45985 1-399)": "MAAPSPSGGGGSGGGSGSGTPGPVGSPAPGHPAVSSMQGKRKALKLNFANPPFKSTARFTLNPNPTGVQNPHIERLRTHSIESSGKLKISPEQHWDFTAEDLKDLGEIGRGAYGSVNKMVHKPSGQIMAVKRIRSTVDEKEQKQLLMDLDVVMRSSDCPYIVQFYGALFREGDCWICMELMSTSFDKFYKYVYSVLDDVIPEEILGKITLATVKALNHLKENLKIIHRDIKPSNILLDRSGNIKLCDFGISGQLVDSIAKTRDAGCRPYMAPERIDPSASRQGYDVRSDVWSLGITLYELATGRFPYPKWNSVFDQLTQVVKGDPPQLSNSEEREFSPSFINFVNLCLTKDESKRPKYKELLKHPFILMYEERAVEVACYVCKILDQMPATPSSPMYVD", "how_it_was_run": "as §1"}, "PDK1/PDPK1": {"target": "T10, PDK1/PDPK1 (Homo sapiens, UniProt O15530)", "T10 construct": "purchased Reaction Biology Corp", "T10 sequence (O15530 1-556)": "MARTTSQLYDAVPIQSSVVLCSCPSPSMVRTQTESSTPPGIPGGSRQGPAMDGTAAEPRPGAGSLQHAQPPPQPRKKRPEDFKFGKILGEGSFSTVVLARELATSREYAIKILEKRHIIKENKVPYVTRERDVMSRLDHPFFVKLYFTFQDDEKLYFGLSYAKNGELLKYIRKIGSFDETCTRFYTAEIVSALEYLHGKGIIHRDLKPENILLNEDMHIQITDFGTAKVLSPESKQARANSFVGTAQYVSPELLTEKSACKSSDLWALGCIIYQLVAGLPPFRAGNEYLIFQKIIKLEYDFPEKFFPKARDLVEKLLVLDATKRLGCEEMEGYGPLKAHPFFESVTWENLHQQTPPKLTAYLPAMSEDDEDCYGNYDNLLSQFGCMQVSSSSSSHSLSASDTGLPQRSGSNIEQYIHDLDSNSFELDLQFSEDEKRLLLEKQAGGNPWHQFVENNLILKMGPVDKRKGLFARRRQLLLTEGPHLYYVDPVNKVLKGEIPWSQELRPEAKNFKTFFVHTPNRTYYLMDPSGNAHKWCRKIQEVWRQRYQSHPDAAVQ", "how_it_was_run": "as §1"}, "PIM1": {"target": "T11, PIM1 (Homo sapiens, UniProt P11309)", "T11 construct": "purchased Reaction Biology Corp", "how_it_was_run": "as §1"}, "PYK2": {"target": "T12, PYK2 (Homo sapiens, UniProt Q14289)", "T12 construct": "purchased Reaction Biology Corp", "T12 sequence (Q14289 whole entry)": "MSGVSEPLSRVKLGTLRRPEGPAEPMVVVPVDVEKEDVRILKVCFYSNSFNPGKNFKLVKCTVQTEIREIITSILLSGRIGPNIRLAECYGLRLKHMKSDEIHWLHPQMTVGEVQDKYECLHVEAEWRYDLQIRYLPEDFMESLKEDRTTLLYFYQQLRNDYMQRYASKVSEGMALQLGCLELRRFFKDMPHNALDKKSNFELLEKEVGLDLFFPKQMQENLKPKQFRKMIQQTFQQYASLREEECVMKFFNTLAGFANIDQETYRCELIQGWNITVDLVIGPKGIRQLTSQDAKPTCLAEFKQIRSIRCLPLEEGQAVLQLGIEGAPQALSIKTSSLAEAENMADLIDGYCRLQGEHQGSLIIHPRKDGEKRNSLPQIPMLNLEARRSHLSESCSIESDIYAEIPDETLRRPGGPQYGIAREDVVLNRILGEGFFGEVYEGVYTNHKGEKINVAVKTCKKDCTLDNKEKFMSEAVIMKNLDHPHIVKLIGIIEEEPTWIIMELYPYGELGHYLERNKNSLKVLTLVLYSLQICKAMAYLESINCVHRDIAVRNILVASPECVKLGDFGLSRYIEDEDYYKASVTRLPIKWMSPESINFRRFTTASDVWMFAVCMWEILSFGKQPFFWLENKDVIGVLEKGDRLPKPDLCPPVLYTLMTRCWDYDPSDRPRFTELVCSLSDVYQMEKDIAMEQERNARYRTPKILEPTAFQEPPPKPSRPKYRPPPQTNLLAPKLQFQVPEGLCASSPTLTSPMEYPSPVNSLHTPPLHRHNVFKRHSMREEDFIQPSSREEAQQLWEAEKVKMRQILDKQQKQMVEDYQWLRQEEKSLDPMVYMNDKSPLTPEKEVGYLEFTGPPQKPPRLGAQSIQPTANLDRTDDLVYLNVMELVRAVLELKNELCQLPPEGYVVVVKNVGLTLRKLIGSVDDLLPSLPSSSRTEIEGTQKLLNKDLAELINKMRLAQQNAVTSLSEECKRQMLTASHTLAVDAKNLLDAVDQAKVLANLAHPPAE", "how_it_was_run": "as §1"}, "STK39/STLK3": {"target": "T13, STK39/STLK3 (Homo sapiens, UniProt Q9UEW8)", "T13 construct": "purchased Reaction Biology Corp", "how_it_was_run": "as §1"}, "YES/YES1": {"target": "T14, YES/YES1 (Homo sapiens, UniProt P07947)", "T14 construct": "purchased Reaction Biology Corp", "how_it_was_run": "as §1"}, "[1]": {"conditions": "read-out: % Enzyme Activity (relative to DMSO controls) AVG"}, "[2]": {"conditions": "read-out: % Enzyme Activity (relative to DMSO controls) Data 1"}, "[3]": {"conditions": "read-out: % Enzyme Activity (relative to DMSO controls) Data 2"}},
  "note": "Where two headings read alike, the source gives them in different places.",
  "data": [
    {"smiles": "CC(C)(C)C(=O)N1N=CC[C@H]1c1ccccc1", "note": "[GSK′963]", "values": [
      {"measurement": "remaining activity at 10 µM", "setting": "AKT1; [1]", "value": 100, "unit": "%"},
      {"measurement": "remaining activity at 10 µM", "setting": "AKT1; [2]", "value": 102, "unit": "%"},
      {"measurement": "remaining activity at 10 µM", "setting": "AKT1; [3]", "value": 98.8, "unit": "%"},
      {"measurement": "remaining activity at 10 µM", "setting": "AKT2; [1]", "value": 92.8, "unit": "%"},
      {"measurement": "remaining activity at 10 µM", "setting": "AKT2; [2]", "value": 91.7, "unit": "%"},
      {"measurement": "remaining activity at 10 µM", "setting": "AKT2; [3]", "value": 93.9, "unit": "%"},
      {"measurement": "remaining activity at 10 µM", "setting": "ALK4/ACVR1B; [1]", "value": 103, "unit": "%"},
      {"measurement": "remaining activity at 10 µM", "setting": "ALK4/ACVR1B; [2]", "value": 104, "unit": "%"},
      {"measurement": "remaining activity at 10 µM", "setting": "ALK4/ACVR1B; [3]", "value": 102, "unit": "%"},
      {"measurement": "remaining activity at 10 µM", "setting": "CAMK1g; [1]", "value": 82.4, "unit": "%"},
      {"measurement": "remaining activity at 10 µM", "setting": "CAMK1g; [2]", "value": 81.8, "unit": "%"},
      {"measurement": "remaining activity at 10 µM", "setting": "CAMK1g; [3]", "value": 83, "unit": "%"},
      {"measurement": "remaining activity at 10 µM", "setting": "CAMK2g; [1]", "value": 115, "unit": "%"},
      {"measurement": "remaining activity at 10 µM", "setting": "CAMK2g; [2]", "value": 112, "unit": "%"},
      {"measurement": "remaining activity at 10 µM", "setting": "CAMK2g; [3]", "value": 118, "unit": "%"},
      {"measurement": "remaining activity at 10 µM", "setting": "DAPK1; [1]", "value": 70.8, "unit": "%"},
      {"measurement": "remaining activity at 10 µM", "setting": "DAPK1; [2]", "value": 72.5, "unit": "%"},
      {"measurement": "remaining activity at 10 µM", "setting": "DAPK1; [3]", "value": 69.2, "unit": "%"},
      {"measurement": "remaining activity at 10 µM", "setting": "FES/FPS; [1]", "value": 91.3, "unit": "%"},
      {"measurement": "remaining activity at 10 µM", "setting": "FES/FPS; [2]", "value": 93.2, "unit": "%"},
      {"measurement": "remaining activity at 10 µM", "setting": "FES/FPS; [3]", "value": 89.5, "unit": "%"},
      {"measurement": "remaining activity at 10 µM", "setting": "FLT1/VEGFR1; [1]", "value": 107, "unit": "%"},
      {"measurement": "remaining activity at 10 µM", "setting": "FLT1/VEGFR1; [2]", "value": 106, "unit": "%"},
      {"measurement": "remaining activity at 10 µM", "setting": "FLT1/VEGFR1; [3]", "value": 107, "unit": "%"},
      {"measurement": "remaining activity at 10 µM", "setting": "MKK4; [1]", "value": 105, "unit": "%"},
      {"measurement": "remaining activity at 10 µM", "setting": "MKK4; [2]", "value": 105, "unit": "%"},
      {"measurement": "remaining activity at 10 µM", "setting": "MKK4; [3]", "value": 105, "unit": "%"},
      {"measurement": "remaining activity at 10 µM", "setting": "PDK1/PDPK1; [1]", "value": 109, "unit": "%"},
      {"measurement": "remaining activity at 10 µM", "setting": "PDK1/PDPK1; [2]", "value": 108, "unit": "%"},
      {"measurement": "remaining activity at 10 µM", "setting": "PDK1/PDPK1; [3]", "value": 110, "unit": "%"},
      {"measurement": "remaining activity at 10 µM", "setting": "PIM1; [1]", "value": 109, "unit": "%"},
      {"measurement": "remaining activity at 10 µM", "setting": "PIM1; [2]", "value": 113, "unit": "%"},
      {"measurement": "remaining activity at 10 µM", "setting": "PIM1; [3]", "value": 106, "unit": "%"},
      {"measurement": "remaining activity at 10 µM", "setting": "PYK2; [1]", "value": 103, "unit": "%"},
      {"measurement": "remaining activity at 10 µM", "setting": "PYK2; [2]", "value": 103, "unit": "%"},
      {"measurement": "remaining activity at 10 µM", "setting": "PYK2; [3]", "value": 103, "unit": "%"},
      {"measurement": "remaining activity at 10 µM", "setting": "STK39/STLK3; [1]", "value": 95.1, "unit": "%"},
      {"measurement": "remaining activity at 10 µM", "setting": "STK39/STLK3; [2]", "value": 100, "unit": "%"},
      {"measurement": "remaining activity at 10 µM", "setting": "STK39/STLK3; [3]", "value": 89.9, "unit": "%"},
      {"measurement": "remaining activity at 10 µM", "setting": "YES/YES1; [1]", "value": 88.2, "unit": "%"},
      {"measurement": "remaining activity at 10 µM", "setting": "YES/YES1; [2]", "value": 88.7, "unit": "%"},
      {"measurement": "remaining activity at 10 µM", "setting": "YES/YES1; [3]", "value": 87.8, "unit": "%"}
    ]}
  ]
}
